Publication PMC7531004, “Discovery of gramicidin A analogues with altered activities by multidimensional screening of a one-bead-one-compound library” (Nature Communications, 2020)
Like-named read-outs stand apart in the source and are kept apart here. Where a SMILES comes first, the peptide text is derived from it. [ ]: non-standard residue; d: D form. The star is where a group is joined. NHCH2CH2OH = OCCN*; For = O=C*

Columns and labels:
rabbit red blood cells = details: red cells of rabbit, 2 h
Protocol: (§1) Second, we examined the cytotoxicity toward mammalian cancer cells and hemolytic activity of 1. […] Hemolytic activity was evaluated by monitoring hemoglobin leakage from rabbit red blood cells as a consequence of membrane damage. The concentration of 1 required to cause 10% hemoglobin leakage (HC10) was 160 nM. Thus, the P388 cytotoxicity of 1 was 28-fold more sensitive than its hemolytic activity.
Hemolysis assay of purified peptides. […]
with DMSO to various concentrations as 3-fold serial dilution. A 50% suspension of rabbit blood in Alsever's solution was obtained from Nippon Bio -Supp. Center . The blood suspension (250 µL) w as diluted with phosphate buffered saline (no calcium, no magnesium, 1.00 mL). The resultant suspension was centrifuged at 1000 × g for 3 min at 8 °C. The supernatant was discarded, and the collected cells were resuspended in phosphate buffered saline (no calcium, no magnesium, 1.00 mL). The same procedure was repeated (× 3). The resultant suspension (100 µL) was diluted with phosphate buffered saline (no calcium, no magnesium, 4.90 mL) to give 0.2% red blood cells suspension. The 0.2% red blood cells suspension (95.0 µL) and each dilution series of the purified peptide in DMSO (5 .0 µL) were mixed in 2 mL microtube.
supernatant was transferred to a 96-well plate (TR5003, TrueLine). The absorbance of each well at 415 nm was measured using a Thermo Scientific Multiskan GO (Thermo Fisher Scientific). The mixture of Triton X-100/H2O (5/95, 2.0 µL), DMSO (5.0 µL), and the 0.2% red blood cells suspension (95.0 µL) was used to determine 100% hemolysis. The mixture of DMSO (5.0 µL) and the 0.2% red blood cells suspension (95.0 µL) was used to determine 0% hemolysis. The hemolytic activities of tested peptides ( I) were normalized against 100% hemolysis by Triton X -100 (Imax) and 0% hemolysis by DMSO (I0) according to Supplementary Equation 3, where Ix is the UV absorbance.
I = 100 × (Ix – I0) / (Imax – I0) (3)
The hemolytic activities of the purified peptides were evaluated as the concentrations causing 10% hemolysis (HC10, nM) by means of three replicates. Sigmoidal curve fittings were performed on GraphPad Prism (GraphPad software, Supplementary Figure 7).

[1] = Protocol: as §1
Mammalian cytotoxicity assay of purified peptides.
B22 was diluted with the growth medium with 2% DMSO to various concentrations as 5-fold serial dilution.
The collected cells were resuspended into
the growth medium at 2 × 10^4 cells/mL. Aliquots of the former medium (2% DMSO, 100 µL) containing
peptides and the latter medium containing P388 cells (100 µL) were mixed in a 96-well cell culture plate
(TR5003, TrueLine). The final concentration of P388 cells and DMSO were 1 × 10^4 cells/mL and 1%,
respectively. […]
were determined by WST -1 assay. A solution of 1-methoxy PMS and WST-1 in the growth medium
(1-methoxy PMS 0.70 mg/mL in Milli-Q/WST-1 3.6 mg/mL in pH 7.4 HEPES buffer = 1/9) was added to
each well of the plate (20.0 µL/well). The cells were incubated for 4 h under atmosphere of 5% CO 2 at
37 °C. The absorbance of each well at 415 nm was measured using a Benchmark microplate reader
(Bio-Rad) or Thermo Scientifi c Multiskan GO (Thermo Fisher Scientific). The cytotoxicities of the purified
peptides were evaluated as IC 50 (nM) by means of three replicates. Sigmoidal curve fittings were performed

[2] = system: Streptococcus pneumoniae NBRC 102642; details: for Antibacterial activity MIC: NBRC 102642; for antibacterial activity/MIC: S. pneumoniae
Protocol: (§2) Third, 1 was subjected to five pathogenic Gram-positive bacteria.
(§3) Evaluation of antibacterial spectra of purified peptides. The MIC assay was performed according to the Clinical and Laboratory Standards Institute protocols. The antibacterial activities of the purified peptides A1, B01–B04, B11–B13, B21, and B22 were measured using the broth microdilution method. 6 Serial dilutions of the peptides were prepared in cation adjusted Mueller Hinton Broth. Each dilution (100 µL) was dispensed to each well of the round-bottom plate to obtain final concentrations ranging from 64 µg/mL to 0.00024 µg/mL. Bacteria were grown at 37 °C overnight on Tryptic Soy Broth or Mueller Hinton Broth agar plates.
(§4) The bacterial colonies were suspended in 0.9% saline to obtain OD 625 of 0.08–0.13 using a spectrophotometer UV-1280 (Shimadzu). The resultant suspension was diluted with cation adjusted Mueller Hinton Broth (1/20). The resultant mixture (10 .0 µL) was inoculated to each well of the plates (approximately 5 × 10^4 CFU/well), mixed, and incubated at 37 °C for 18–24 h. The MIC value was determined as the minimum concentration that inhibited growth of bacteria. For Streptococcus species, cation adjusted Mueller Hinton Broth supplemented with 5% laked horse blood was used. […]

[3] = system: Streptococcus agalactiae JCM5671; details: for Antibacterial activity MIC: JCM5671; for antibacterial activity/MIC: S. agalactiae
Protocol: as §2, §3, §4

[4] = system: Enterococcus faecalis JCM5803; details: for antibacterial activity/MIC: E. faecalis; for Antibacterial activity MIC: JCM5803
Protocol: as §2, §3, §4

[5] = system: Streptococcus pyogenes SSI-9; details: for antibacterial activity/MIC: S. pyogenes; for Antibacterial activity MIC: SSI-9
Protocol: as §2, §3, §4

[6] = system: Listeria monocytogenes 10403S; details: for Antibacterial activity MIC: 10403S; for antibacterial activity/MIC: L. monocytogenes
Protocol: as §2, §3, §4

[7] = IC50, mammalian cytotoxicity assay
[8] = cytotoxicity against P388 cells/IC50

SMILES	Hemolytic activity HC10 (concentration causing 10% hemolysis) (rabbit red blood cells) [nM]	IC50 [1, 7] [nM]	Antibacterial activity MIC [2] [µM]	antibacterial activity/MIC [2] [µg/mL]	Antibacterial activity MIC [3] [µM]	antibacterial activity/MIC [3] [µg/mL]	antibacterial activity/MIC [4] [µg/mL]	Antibacterial activity MIC [4] [µM]	antibacterial activity/MIC [5] [µg/mL]	Antibacterial activity MIC [5] [µM]	Antibacterial activity MIC [6] [µM]	antibacterial activity/MIC [6] [µg/mL]	IC50 ([1]; Cytotoxicity IC50) [nM]	IC50 [1, 8] [nM]
CC(C)C[C@@H](NC(=O)[C@H](C)NC(=O)[C@H](NC(=O)[C@H](C)NC(=O)CNC(=O)[C@@H](NC=O)C(C)C)[C@H](C)O)C(=O)N[C@H](C(=O)N[C@H](CC(C)C)C(=O)N[C@@H](Cc1c[nH]c2ccccc12)C(=O)N[C@@H](C(=O)N[C@@H](Cc1c[nH]c2ccccc12)C(=O)N[C@H](CC(C)C)C(=O)N[C@@H](Cc1c[nH]c2ccccc12)C(=O)N[C@@H](C(=O)N[C@@H](Cc1c[nH]c2ccccc12)C(=O)NCCO)C(C)C)[C@H](C)O)C(C)C [B21] (For-VGA[dT]A[dL]V[dL]W[dT]W[dL]W[dV]W-NHCH2CH2OH)	> 3000	> 1000	0.53	1	34	64	8	4.3	32	17	> 34	> 64	–	–
CC(C)C[C@@H](NC(=O)[C@H](C)NC(=O)[C@H](NC(=O)[C@H](C)NC(=O)CNC(=O)[C@@H](NC=O)C(C)C)C(C)C)C(=O)N[C@H](C(=O)N[C@@H](C(=O)N[C@@H](Cc1c[nH]c2ccccc12)C(=O)N[C@@H](C(=O)N[C@@H](Cc1c[nH]c2ccccc12)C(=O)N[C@H](CC(C)C)C(=O)N[C@@H](Cc1c[nH]c2ccccc12)C(=O)N[C@H](CC(C)C)C(=O)N[C@@H](Cc1c[nH]c2ccccc12)C(=O)NCCO)C(C)C)C(C)C)C(C)C [B02] (For-VGA[dV]A[dL]V[dV]W[dV]W[dL]W[dL]W-NHCH2CH2OH)	1400	18.7	0.0083	0.016	8.6	16	0.25	0.13	0.13	0.067	2.1	4	17	16.8 ± 2.82
CC(C)C[C@@H](NC(=O)[C@H](C)NC(=O)CNC(=O)[C@@H](NC=O)C(C)C)C(=O)N[C@@H](C)C(=O)N[C@@H](C(=O)N[C@H](C(=O)N[C@@H](C(=O)N[C@@H](Cc1c[nH]c2ccccc12)C(=O)N[C@@H](C(=O)N[C@@H](Cc1c[nH]c2ccccc12)C(=O)N[C@@H](C(=O)N[C@@H](Cc1c[nH]c2ccccc12)C(=O)N[C@@H](C(=O)N[C@@H](Cc1c[nH]c2ccccc12)C(=O)NCCO)C(C)C)C(C)C)C(C)C)C(C)C)C(C)C)C(C)C [B03] (For-VGA[dL]A[dV]V[dV]W[dV]W[dV]W[dV]W-NHCH2CH2OH)	2000	35.9	0.0042	0.0078	17	32	1	0.54	0.13	0.068	4.3	8	38	37.6 ± 1.56
CC(C)C[C@@H](NC(=O)[C@H](Cc1c[nH]c2ccccc12)NC(=O)[C@@H](CC(C)C)NC(=O)[C@H](Cc1c[nH]c2ccccc12)NC(=O)[C@@H](CC(C)C)NC(=O)[C@H](Cc1c[nH]c2ccccc12)NC(=O)[C@H](NC(=O)[C@@H](NC(=O)[C@H](NC(=O)[C@H](C)NC(=O)[C@H](NC(=O)[C@H](C)NC(=O)CNC(=O)[C@@H](NC=O)C(C)C)C(C)C)C(C)C)C(C)C)C(C)C)C(=O)N[C@@H](Cc1c[nH]c2ccccc12)C(=O)NCCO [A1] (For-VGA[dV]A[dV]V[dV]W[dL]W[dL]W[dL]W-NHCH2CH2OH)	240	3.52	0.001	0.0019	0.54	1	0.25	0.13	0.015	0.008	1.1	2	4.1	–
CC(C)C[C@@H](NC(=O)[C@H](Cc1c[nH]c2ccccc12)NC(=O)[C@H](NC(=O)[C@@H](NC(=O)[C@H](NC(=O)[C@H](C)NC(=O)[C@H](NC(=O)[C@H](C)NC(=O)CNC(=O)[C@@H](NC=O)C(C)C)C(C)C)C(C)C)C(C)C)C(C)C)C(=O)N[C@@H](Cc1c[nH]c2ccccc12)C(=O)N[C@@H](C(=O)N[C@@H](Cc1c[nH]c2ccccc12)C(=O)N[C@@H](C(=O)N[C@@H](Cc1c[nH]c2ccccc12)C(=O)NCCO)C(C)C)C(C)C [B01] (For-VGA[dV]A[dV]V[dV]W[dL]W[dV]W[dV]W-NHCH2CH2OH)	1100	–	0.0021	0.0039	8.7	16	0.5	0.27	0.03	0.016	4.3	8	17	17.5 ± 12
CC(C)C[C@@H](NC(=O)[C@H](C)NC(=O)CNC(=O)[C@@H](NC=O)C(C)C)C(=O)N[C@@H](C)C(=O)N[C@@H](C(=O)N[C@H](C(=O)N[C@@H](C(=O)N[C@@H](Cc1c[nH]c2ccccc12)C(=O)N[C@@H](C(=O)N[C@@H](Cc1c[nH]c2ccccc12)C(=O)N[C@H](CC(C)C)C(=O)N[C@@H](Cc1c[nH]c2ccccc12)C(=O)N[C@@H](C(=O)N[C@@H](Cc1c[nH]c2ccccc12)C(=O)NCCO)C(C)C)C(C)C)C(C)C)C(C)C)C(C)C [B04] (For-VGA[dL]A[dV]V[dV]W[dV]W[dL]W[dV]W-NHCH2CH2OH)	1100	34.3	0.0084	0.016	4.3	8	1	0.54	0.063	0.034	4.3	8	41	40.6 ± 5.95
